Target: T1, Vtc1/Vtc3/Vtc4 complex (VTC complex) (Saccharomyces cerevisiae, UniProt P47075+Q02725)
T1 construct: full-length subunits co-expressed in Expi293F; Vtc1 C-terminal HA, Vtc3 N-terminal 3xFlag, Vtc4 C-terminal 2xStrep; detergent-purified; 3:1:1 pentamer; with Vacuolar transporter chaperone complex subunit 1
T1 sequence (P47075 1-721): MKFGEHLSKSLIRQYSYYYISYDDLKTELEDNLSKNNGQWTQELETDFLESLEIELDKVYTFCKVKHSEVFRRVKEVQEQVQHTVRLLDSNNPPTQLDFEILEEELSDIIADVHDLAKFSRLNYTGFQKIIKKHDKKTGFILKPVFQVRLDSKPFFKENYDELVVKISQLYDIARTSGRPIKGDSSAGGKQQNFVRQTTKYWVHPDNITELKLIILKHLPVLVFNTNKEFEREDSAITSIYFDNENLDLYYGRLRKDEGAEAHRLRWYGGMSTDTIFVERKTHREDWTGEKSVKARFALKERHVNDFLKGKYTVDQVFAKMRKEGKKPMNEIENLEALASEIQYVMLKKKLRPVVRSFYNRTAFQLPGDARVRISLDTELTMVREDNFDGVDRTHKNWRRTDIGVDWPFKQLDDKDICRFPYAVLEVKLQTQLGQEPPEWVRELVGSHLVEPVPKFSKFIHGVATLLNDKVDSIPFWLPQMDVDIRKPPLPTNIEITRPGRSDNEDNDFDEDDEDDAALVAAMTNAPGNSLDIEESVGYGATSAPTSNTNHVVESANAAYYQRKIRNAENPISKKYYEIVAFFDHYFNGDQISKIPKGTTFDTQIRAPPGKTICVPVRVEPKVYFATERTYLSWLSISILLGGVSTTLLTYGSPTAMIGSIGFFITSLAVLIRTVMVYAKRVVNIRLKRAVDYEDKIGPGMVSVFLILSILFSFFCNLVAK
T1 sequence (Q02725 1-835): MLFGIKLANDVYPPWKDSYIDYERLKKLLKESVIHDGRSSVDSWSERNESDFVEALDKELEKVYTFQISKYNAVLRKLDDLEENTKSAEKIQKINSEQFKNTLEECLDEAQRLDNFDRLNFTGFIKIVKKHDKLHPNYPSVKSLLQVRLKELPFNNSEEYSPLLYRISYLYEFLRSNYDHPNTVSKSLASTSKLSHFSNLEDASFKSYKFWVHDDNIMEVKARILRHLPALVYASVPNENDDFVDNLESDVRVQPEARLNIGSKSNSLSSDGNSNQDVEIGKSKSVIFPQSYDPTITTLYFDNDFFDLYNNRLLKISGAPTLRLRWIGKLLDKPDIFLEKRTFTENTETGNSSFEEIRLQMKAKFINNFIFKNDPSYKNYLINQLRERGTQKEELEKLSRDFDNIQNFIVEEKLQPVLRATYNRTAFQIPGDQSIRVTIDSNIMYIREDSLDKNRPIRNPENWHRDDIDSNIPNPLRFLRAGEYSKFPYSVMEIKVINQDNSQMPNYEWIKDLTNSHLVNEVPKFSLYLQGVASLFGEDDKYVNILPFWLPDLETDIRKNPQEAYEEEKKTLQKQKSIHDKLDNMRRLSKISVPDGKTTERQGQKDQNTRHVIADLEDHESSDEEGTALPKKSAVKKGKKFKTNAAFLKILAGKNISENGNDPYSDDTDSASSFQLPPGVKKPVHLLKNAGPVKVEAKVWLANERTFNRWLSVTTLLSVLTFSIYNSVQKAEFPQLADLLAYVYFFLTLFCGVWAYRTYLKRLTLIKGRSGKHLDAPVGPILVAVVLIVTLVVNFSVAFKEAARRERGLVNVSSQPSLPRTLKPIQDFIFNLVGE
T1 sequence (P40046 22-129 partner): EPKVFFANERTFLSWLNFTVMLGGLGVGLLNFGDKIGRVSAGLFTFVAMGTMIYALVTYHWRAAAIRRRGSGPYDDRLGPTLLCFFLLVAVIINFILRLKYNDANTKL
Assay: polyP synthesis, TBE-PAGE; smFRET
Format: biochemical
Settings: 1 mM InsP6; activator; deletion of Vtc1 N-terminus

## O=P(O)(O)O[C@H]1[C@H](OP(=O)(O)O)[C@@H](OP(=O)(O)O)[C@H](OP(=O)(O)O)[C@@H](OP(=O)(O)O)[C@H]1OP(=O)(O)O [InsP6]
  polyP synthesis, TBE-PAGE; smFRET: mutant VTC complex that can no longer be activated by the InsP6 stimulus
